The assay has as its system SCI model in rats. The experiment in a line: Spasticity: amplitude of the Hoffman reflex (H-reflex). The class given is in vivo, rat. The note with it: for H % following CNO: 12 weeks. An excerpt:
Taking advantage of the DREADD-expressing neural cells we transplanted, we asked if the therapeutic effects depend on the activity of the grafted cells.

Results on 1 compound are retold here after patent publication US20230340406A1, “METHODS AND COMPOSITIONS FOR PRODUCING STEM CELL DERIVED SPINAL GABA INHIBITORY NEURONS FOR USE IN TREATMENT OF SPINAL CORD INJURY” (BrainXell, Inc., priority 2020, published 2023).

As to `C[N+]1([O-])CCN(C2=Nc3cc(Cl)ccc3Nc3ccccc32)CC1` [CNO], the “H % following CNO injection” value is 47%±4.12% (cell-transplanted rats (DREADD-expressing cells), 3 mg/kg, 6 weeks, 2 Hz) and 28.21%±5.63% (cell-transplanted rats, 3 mg/kg, 6 weeks, 5 Hz). In addition, the “decrease of H % following CNO injection” value (cell-transplanted rats, 3 mg/kg, 6 weeks, 1 Hz) was “not at 1 Hz”. Moreover, the “H % following CNO” value is, setting by setting: (cell-transplanted rats, 1 Hz) 26.05%±5.64%; (cell-transplanted rats, 2 Hz) 17.57%±4.98%; (cell-transplanted rats, 5 Hz) 9.09%±1.52%. Further, the “change of H % in response to CNO treatment” value (control animals: sham operation, SCI, SCI injected with medium) is recorded as “did not show any changes”.
